Measurements as given in US12600716B2 (Gannex Pharma Co., Ltd., priority 2020, dated 2026).

Experiments:
hFXR-LBD-GAL4 = target: T1, hFXR-LBD-GAL4 (Homo sapiens, UniProt Q96RI1); experiment: FXR agonist transactivation ability: luciferase reporter gene in HEK293T; assay type: cell-based; conditions: read-out: Cell activity
T1 construct: GAL4 (fusion partner); host or cells: HEK293T
T1 sequence (Q96RI1 262-486 limits assumed): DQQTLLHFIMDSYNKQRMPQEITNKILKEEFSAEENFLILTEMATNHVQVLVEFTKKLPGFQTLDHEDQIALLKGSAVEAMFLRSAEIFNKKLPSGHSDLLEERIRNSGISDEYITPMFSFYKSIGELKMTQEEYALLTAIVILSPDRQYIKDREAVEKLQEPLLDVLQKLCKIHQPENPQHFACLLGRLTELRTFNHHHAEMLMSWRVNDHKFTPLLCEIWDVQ
Procedure: FXR Agonist Transactivation Ability
Evaluation of the ability of the compound of the present invention to promote FXR transactivation was conducted by using luciferase reporter gene expression technology.
• 1. Cell line: HEK293T (Invitrogen) • 2. Expression plasmid: pBIND-hFXR-LBD-GAL4 (Promega), pGL4.35-luciferase (Promega) • 3. Cell culture medium: 10% serum and penicillin/streptomycin double antibody in DMEM medium • 4. Detection reagent: Steady-Glo fluorescence detection system (Promega). • 5. Transfection reagent: TransIT-293 Transfection Reagent (MIRUS BIO)
• 1. The compound was prepared into a 10 mM DMSO stock solution and stored in a −20° C. refrigerator for a long time. • 2. Resuscitation HEK293T cells were seeded in 10 cm culture dishes at a concentration of 5.5×10^6 and incubated for 16 hours at 37° C. in a 5% CO2 incubator. • 3. Return the transfection reagent to room temperature before transfection. The Trans-IT solution was added dropwise to Opti-MEM, and mixed by inversion for 5 minutes; the expression plasmid was added, mixed by inversion, and incubated at room temperature for 20 minutes. • 4. Add the transfection mixture from Step 3 to the prepared 10 cm dish in Step 2 and incubate for 5-6 hours in a 5% CO2 incubator. • 5. Dilute the compound 3 folds to 10 concentration points using DMSO; add 25 nl of compound per well in a 384-well plate using an Echo 550 sonic pipette; add HEK293T cells to the 384-well plate at a concentration of 15,000 cells/well; 37° C. incubate for 16-20 hours in a 5% CO2 incubator. • 6. Add 25 μl of Steady-Glo Fluorescent Reagent to each well and read the fluorescence on an Envision 2104 plate reader. • 7. Calculate the EC50 value of the activation of the compound.

human FXR protein = target: T2, human FXR protein (Homo sapiens, UniProt Q96RI1); experiment: FXR agonist binding ability: time-resolved fluorescence (LanthaScreen) FXR/coactivator assay; assay type: biochemical; conditions: GST-labeled human FXR, fluorescein-labeled coactivator, TR-FRET
T2 construct: purchased Invitrogen
Procedure: FXR Agonist Binding Ability Evaluation of the activation effect of the compound of the present invention with regard to the binding of FXR to its co-stimulatory factor SRC-1 was conducted by using time-resolved analytical techniques. Protein: glutathione-S-transferase (GST)-labeled human FXR protein (Invitrogen) • 2. Coactivator: Fluorescein-labeled steroid receptor coactivator (SRC2-2) (Invitrogen) • 3. Detection reagent: LanthaScreen Time-Resolved Fluorescence Analysis Kit (Invitrogen) • 1. The compound was prepared into a 10 mM DMSO stock solution and stored in a −20° C. refrigerator for a long time. • 2. The compound was diluted to 1 mM before the experiment, and then the compound was diluted 3-fold to 10 concentration points using DMSO. Then use buffer G (Invitrogen, PV4553) to dilute these 10 concentration points by 50 times to become a working fluid. Add 10 μl of each working solution to each well of a 384-well plate. • 3. Prepare a human FXR protein solution (final concentration 20 nM) in chilled buffer G and add 5 μl of human FXR protein solution to each well of a 384-well plate. • 4. Prepare a mix of buffer G containing 2 μM fluorescein-labeled steroid receptor coactivator and 20 nM GST antibody. • 5. Add 5 μl of the mixture prepared in Step 4 to a 384-well plate. • 6. Centrifuge the 384-well plate at 1000 g for 1 minute. • 7. Incubate for 1 hour at room temperature in the dark. • 8. Read the 384-well plate at 520 nm and 495 nm on an Envision 2104 plate reader. • 9. Calculate the EC50 value of the activation effect of the compound.

Structure (SMILES) | EC50 (hFXR-LBD-GAL4) [nM] | EC50 (human FXR protein) [nM]
O=C(O)c1ccc(Oc2ccc3cc(OCc4c(-c5c(Cl)cccc5Cl)noc4C4CC4)ccc3c2)nn1 [Compound 2, 6-((6-((5-cyclopropyl-3-(2,6-dichlorophenyl)isoxazol-4-yl)methoxy)naphthalen-2-yl)oxy)pyridazine-3-carboxylic acid] | > 1000 | 50 to 500
O=C(O)c1cnc(Oc2ccc3cc(OCc4c(-c5c(Cl)cccc5Cl)noc4C4CC4)ccc3c2)c(Cl)c1 [Compound 3, 5-chloro-6-((6-((5-cyclopropyl-3-(2,6-dichlorophenyl)isoxazol-4-yl)methoxy)naphthalen-2-yl)oxy)nicotinic acid] | > 1000 | > 500
O=C(O)c1cnc(Oc2ccc3cc(OCc4c(-c5c(Cl)cccc5Cl)noc4C4CC4)ccc3c2)s1 [Compound 4, 2-((6-((5-cyclopropyl-3-(2,6-dichlorophenyl)isoxazol-4-yl)methoxy)naphthalen-2-yl)oxy)thiazole-5-carboxylic acid] | > 1000 | 50 to 500
Cc1cc(C(=O)O)cnc1Oc1ccc2cc(OCc3c(-c4c(Cl)cccc4Cl)noc3C3CC3)ccc2c1 [Compound 5, 6-((6-((5-cyclopropyl-3-(2,6-dichlorophenyl)isoxazol-4-yl)methoxy)naphthalen-2-yl)oxy)-5-methylnicotinic acid] | > 1000 | > 500
O=C(NS(=O)(=O)C1CC1)c1ccc(Oc2ccc3cc(OCc4c(-c5c(Cl)cccc5Cl)noc4C4CC4)ccc3c2)nc1 [Compound 6, 6((6((5-cyclopropyl-3-(2,6-dichlorophenyl)isoxazol-4-yl)methoxy)naphthalen-2-yl)oxy)-N-(cyclopropylsulfonyl)nicotinamide] | > 1000 | 50 to 500
O=C(O)c1cnc(Oc2ccc3cc(OCc4c(-c5c(Cl)cccc5Cl)noc4C4CC4)ccc3c2)cn1 [Compound 7, 5-((6-((5-cyclopropyl-3-(2,6-dichlorophenyl)isoxazol-4-yl)methoxy)naphthalen-2-yl)oxy)pyrazine-2-carboxylic acid] | > 1000 | > 500
O=C(O)c1ccc(Oc2ccc3cc(OCc4c(-c5c(Cl)cccc5Cl)noc4C4CC4)ccc3c2)nc1Cl [Compound 8, 2-chloro-6-((6-((5-cyclopropyl-3-(2,6-dichlorophenyl)isoxazol-4-yl)methoxy)naphthalen-2-yl)oxy)nicotinic acid] | 500 to 1000 | 50 to 500
O=C(O)c1ccc(Oc2ccc3cc(OCc4c(-c5c(Cl)cccc5Cl)noc4C4CC4)ccc3c2)cn1 [Compound 9, 5-((6-((5-cyclopropyl-3-(2,6-dichlorophenyl)isoxazol-4-yl)methoxy)naphthalen-2-yl)oxy)picolinic acid] | > 1000 | 50 to 500
O=C(O)c1ccnc(Oc2ccc3cc(OCc4c(-c5c(Cl)cccc5Cl)noc4C4CC4)ccc3c2)c1 [Compound 12, 2-((6-((5-cyclopropyl-3-(2,6-dichlorophenyl)isoxazol-4-yl)methoxy)naphthalen-2-yl)oxy)isonicotinic acid] | > 1000 | < 50
O=C(O)c1ncccc1Oc1ccc2cc(OCc3c(-c4c(Cl)cccc4Cl)noc3C3CC3)ccc2c1 [Compound 13, 3-((6-((5-cyclopropyl-3-(2,6-dichlorophenyl)isoxazol-4-yl)methoxy)naphthalen-2-yl)oxy)picolinic acid] | > 1000 | 50 to 500
O=C(O)c1ccccc1Oc1ccc2cc(OCc3c(-c4c(Cl)cccc4Cl)noc3C3CC3)ccc2c1 [Compound 14, 2-((6-((5-cyclopropyl-3-(2,6-dichlorophenyl)isoxazol-4-yl)methoxy)naphthalen-2-yl)oxy)benzoic acid] | > 1000 | 50 to 500
O=C(O)c1cccnc1Oc1ccc2cc(OCc3c(-c4c(Cl)cccc4Cl)noc3C3CC3)ccc2c1 [Compound 15, 2-((6-((5-cyclopropyl-3-(2,6-dichlorophenyl)isoxazol-4-yl)methoxy)naphthalen-2-yl)oxy)nicotinic acid] | > 1000 | 50 to 500
O=C(O)c1ccncc1Oc1ccc2cc(OCc3c(-c4c(Cl)cccc4Cl)noc3C3CC3)ccc2c1 [Compound 16, 3-((6-((5-cyclopropyl-3-(2,6-dichlorophenyl)isoxazol-4-yl)methoxy)naphthalen-2-yl)oxy)isonicotinic acid] | > 1000 | < 50
O=C(O)c1ccc(Oc2ccc3cc(OCc4c(-c5ccccc5OC(F)(F)F)noc4C4CC4)ccc3c2)nc1 [Compound 17] | > 1000 | > 500
O=C(O)c1ccc(Oc2ccc3cc(OCc4c(-c5c(Cl)cc(F)cc5Cl)noc4C4CC4)ccc3c2)nc1 [Compound 18] | > 1000 | 50 to 500
COc1cc(Cl)c(-c2noc(C3CC3)c2COc2ccc3cc(Oc4ccc(C(=O)O)cn4)ccc3c2)c(Cl)c1 [Compound 19, 6-((6-((5-cyclopropyl-3-(2,6-dichloro-4-methoxyphenyl)isoxazol-4-yl)methoxy)naphthalen-2-yl)oxy)nicotinic acid] | > 1000 | > 500
O=C(O)c1ccc(Oc2ccc3cc(OCc4c(-c5c(Cl)cccc5Cl)noc4C4CC4)ccc3c2F)nc1 [Compound 20, 6-((6-((5-cyclopropyl-3-(2,6-dichlorophenyl)isoxazol-4-yl)methoxy)-1-fluoronaphthalen-2-yl)oxy)nicotinic acid] | 500 to 1000 | 50 to 500
O=C(O)c1cccc(Oc2cccc3cc(OCc4c(-c5c(Cl)cccc5Cl)noc4C4CC4)ccc23)n1 [Compound 23, 6-((6-((5-cyclopropyl-3-(2,6-dichlorophenyl)isoxazol-4-yl)methoxy)naphthalen-1-yl)oxy)picolinic acid] | > 1000 | > 500
O=C(O)c1ncccc1Oc1cccc2cc(OCc3c(-c4c(Cl)cccc4Cl)noc3C3CC3)ccc12 [Compound 25, 3-((6-((5-cyclopropyl-3-(2,6-dichlorophenyl)isoxazol-4-yl)methoxy)naphthalen-1-yl)oxy)picolinic acid] | > 1000 | 50 to 500
O=C(O)c1ccc(Oc2ccc3c(Cl)c(OCc4c(-c5c(Cl)cccc5Cl)noc4C4CC4)ccc3c2)nc1 [Compound 29, 6-((5-chloro-6-((5-cyclopropyl-3-(2,6-dichlorophenyl)-isoxazol-4-yl)methoxy)naphthalen-2-yl)oxy)nicotinic acid] | 500 to 1000 | 50 to 500
O=C(O)c1ccc(Oc2c(F)ccc3cc(OCc4c(-c5c(Cl)cccc5Cl)noc4C4CC4)ccc23)nc1 [Compound 30, 6-((6-((5-cyclopropyl-3-(2,6-dichlorophenyl)isoxazol-4-yl)methoxy)-2-fluoronaphthalen-1-yl)oxy)nicotinic acid] | < 200 | < 50
O=C(O)c1ccc(Oc2ccc3cc(OCc4c(-c5c(Cl)cccc5Cl)noc4C4CC4)ccc3c2)nc1 [Compound 33] | < 200 | 50 to 500
O=C(O)c1cccnc1Oc1cccc2cc(OCc3c(-c4c(Cl)cccc4Cl)noc3C3CC3)ccc12 [Compound 35, 2-((6((5-cyclopropyl-3-(2,6-dichlorophenyl)isoxazol-4-yl)methoxy)naphthalen-1-yl)oxy)nicotinic acid] | < 200 | < 50
